{"source": "patent US20220127297A1", "about": "“Novel Antibacterial 3\"-Derivatives Of 4,6-Disubstituted 2,5-Dideoxystreptamine Aminoglycoside Antibiotics” (AGILeBiotics B.V., priority 2018, published 2022)", "key": {"[1]": {"assay": "Maximum tolerated dose (MTD) / acute toxicity study, IV", "format": "in vivo", "conditions": "for MTD at 4 days / LD50 at 4 days: male, CD (Sprague Dawley), rat, in vivo, iv; for LD50 at 4 days / LD50: rats, one-time IV dose over 15 min", "method": "4.4 Maximum Tolerated Dose (MTD) Study in Male CD (Sprague Dawley) Rats.\nThe study was performed in an AAALAC I—approved Facility. The standard study plan relating to this study was reviewed by the Ethical Committee (CARE-Zagreb) as required by International Laws/Regulations and Croatian Low on Animal Welfare (“The Animal Protection Act”, Official Gazette, NN 37/13) and Animal Welfare Officer.\nIn vivo studies were performed by Fidelta (Zagreb, Croatia) and all rats (Sprague Dawley) were obtained from Charles River Laboratories (Italy). Three compounds, i.e. ABX5006, ABX5020 and ABX5039 were tested to determine the MTD of the test articles in male CD (Sprague Dawley) rats following a one-time dose (IV).\nMTD study: Pathogen-free male CD (Sprague Dawley) rats (3 rats per dosing group) weighing 225-260 g were used. Five different dosing groups (50 mg/kg, 75 mg/kg, 100 mg/kg, 150 mg/kg and 200 mg/kg) were used and the test article was administered intravenous over 15 min (slow injection, 5 mL/kg). […] Clinical signs, body weight, food consumption and mortality was recorded during the in-life phase of the study. All animals surviving to the end of the 4 day monitoring period were euthanized on day 4. Terminal studies included gross necropsy and organ weight recording of all animals.\nSupplies/Chemicals. Sterile, single used needles (25 G Microlance, REF300400, Becton Dickinson); 2 mL syringes (REF300185, Becton Dickinson); Phosphate buffered saline (P3813, Sigma Aldrich); isoflurane anesthesia (Abbott, Netherlands)\nAnesthesia. Animals were deeply anaesthetized using isoflurane and subsequently exsangunated for full post mortem examination."}, "[2]": {"test_system": "Escherichia coli ATCC700336", "assay": "Urinary tract infection model", "format": "in vivo, female C3H/HeNRj mice", "conditions": "for Change from vehicle group / Avg. Log CFU/g (kidney pair): SC, QD; for Change from vehicle group: Avg. Log CFU/g (kidney pair) vs vehicle; for Avg. Log CFU/g (kidney pair): kidneys 24 hours post treatment", "method": "4.3 Urinary Tract Infection Model (Escherichia coli ATCC700336)\nTwo compounds, i.e. ABX5006 and ABX5026, and a comparator antibiotic (gentamicin sulfate; Cat. No. G4918, Sigma Aldrich) were tested in a mouse model of urinary tract infection with Escherichia coli ATCC700336.\nUrinary tract infection model: Pathogen-free female C3H/HeNRj mice (8 mice per dosing group) weighing 24±4 g were used.\nFor subcutaneous treatment, pre-weighed reference compound (gentamicin sulfate) was dissolved in 0.9% sodium chloride solution, to reach a final concentration of 1.5 mg/mL for a dose of 15 mg/kg (group 3) or 3.0 mg/mL for a dose of 30 mg/kg (group 2). Each mouse was infected transurethral with Escherichia coli ATCC700336 (5.0×10^1 CFU/100 μL/mouse), under light ketamine/xylazine anesthesia. Mice were water deprived 1.5 hours prior to infection and 1 hour post infection.\nAnimals were dosed subcutaneously once either with gentamicin (groups 2-3), ABX5006 (groups 4-5), ABX5026 (groups 6-7) or vehicle—PBS (group 1) 24 hours post infection.\nBoth kidneys were aseptically removed and placed into pre-weighed sterile Precellys test tube containing 2 mL of sterile PBS. Post-sampling, Precellys test tubes were weighed once again. Kidneys were homogenized in sterile PBS by Precellys Evolution, homogenizer, BERTIN Technologies, and serially diluted for CFU determination. Kidney pairs of one animal will represent one sample.\nSupplies/Chemicals. Tryptic Soy Agar (BD Cat. no. 236950, Becton Dickinson), Trypticase Soy Broth (BD Cat. no. 211768, Becton Dickinson), 2 mL syringes (BD Plastipak, Ref. 300185, Becton Dickinson), 1 mL syringes (BD Plastipak, Ref. 300013, Becton Dickinson), Sterile, single use needles (BD MICROLANCE, 27 G ¾, Nr. 20 ref. 300220, Becton Dickinson), Sterile, single use needles (BD MICROLANCE, 25 G 1, Nr. 18 ref. 300400, Becton Dickinson), Narkamon (100 mg/mL ketamine chloride) (Bioveta, a.s., Czech Republic), Xylazine 2% (Alfasan International B.V., Woerden, Netherlands), Saline (HZ™, serial no.: 1422115), PBS (Sigma, cat. no. P4417, Germany), Precellys lysing kit (ref. no. KT03961-1-302.7, Bertin technologies, France).\nInoculum preparation for intramuscular infection. Escherichia coli ATCC 700336 was grown on Tryptic Soy Agar plate and incubated for 18-20 h at 37° C. Bacterial agar growth was suspended to 1.0×10^10 colony-forming units (CFU)/mL in adequate volume of tryptic soy broth (TSB), and the inoculum was held at 4° C. until it was used for infection.\nCFU determination. Kidney pairs were homogenized using a Precellys Evolution homogenizer (Bertin Instruments)."}, "[3]": {"test_system": "Escherichia coli (ATCC 700336)", "assay": "MIC against the strain of the urinary tract infection model", "format": "cell-based", "conditions": "ATCC700336"}}}
{"smiles": "N=C(NC[C@@H]1CCNC1)NC1[C@@H](O)C(OC2[C@@H](F)[C@H](O[C@H]3OC(CN)[C@@H](O)CC3N)C(N)C[C@H]2NC(=O)[C@@H](O)CCN)O[C@H](CO)[C@H]1O", "note": "(stereo partly drawn) [ABX5039, Tobra-AHB-F-Gua (R) pyrrolidine-3-ylmethyl]", "values": [{"measurement": "MTD at 4 days", "setting": "[1]", "value": 75, "unit": "mg/kg"}, {"measurement": "LD50 at 4 days", "setting": "[1]", "value": "> 75", "unit": "mg/kg"}, {"measurement": "LD50", "setting": "[1]", "value": "75 to 100", "unit": "mg/kg"}]}
{"smiles": "N=C(N)NC1C(O)[C@@H](CO)OC(OC2C(F)[C@H](O[C@H]3OC(CN)[C@@H](O)CC3N)C(N)C[C@H]2NC(=O)[C@@H](O)CCN)[C@@H]1O", "note": "(some centres unmarked) [ABX5006, Tobra-AHB-F-Gua]", "values": [{"measurement": "MTD at 4 days", "setting": "[1]", "value": 150, "unit": "mg/kg"}, {"measurement": "LD50 at 4 days", "setting": "[1]", "value": "> 200", "unit": "mg/kg"}, {"measurement": "LD50", "setting": "[1]", "value": ">200", "unit": "mg/kg"}, {"measurement": "CFU count reduction in kidneys in comparison to the vehicle control group", "setting": "[2]; dose 15 mg/kg SC QD", "value": 1.38, "unit": "log 10"}, {"measurement": "Change from vehicle group", "setting": "[2]; dose 15 mg/kg", "value": 1.38}, {"measurement": "Avg. Log CFU/g (kidney pair)", "setting": "[2]; dose 15 mg/kg", "value": 2.60, "unit": "Log CFU/g"}, {"measurement": "CFU count reduction in kidneys in comparison to the vehicle control group", "setting": "[2]; dose 30 mg/kg SC QD", "value": 1.53, "unit": "log 10"}, {"measurement": "Change from vehicle group", "setting": "[2]; dose 30 mg/kg", "value": 1.53}, {"measurement": "Avg. Log CFU/g (kidney pair)", "setting": "[2]; dose 30 mg/kg", "value": 1.45, "unit": "Log CFU/g"}, {"measurement": "MIC", "setting": "[3]", "value": 0.25, "unit": "µg/mL"}]}
{"smiles": "N=C(NC[C@@H]1CCCN1)NC1[C@@H](O)C(OC2[C@@H](F)[C@H](O[C@H]3OC(CN)[C@@H](O)CC3N)C(N)C[C@H]2NC(=O)[C@@H](O)CCN)O[C@H](CO)[C@H]1O", "note": "(stereo partly drawn) [ABX5026, Tobra-AHB-F-Gua (S) pyrrolidine-2-yl-methyl]", "values": [{"measurement": "MTD at 4 days", "setting": "[1]", "value": 75, "unit": "mg/kg"}, {"measurement": "LD50 at 4 days", "setting": "[1]", "value": "> 75", "unit": "mg/kg"}, {"measurement": "CFU count reduction in kidneys in comparison to the vehicle control group", "setting": "[2]; dose 15 mg/kg SC QD", "value": 1.58, "unit": "log 10"}, {"measurement": "Change from vehicle group", "setting": "[2]; dose 15 mg/kg", "value": 1.58}, {"measurement": "Avg. Log CFU/g (kidney pair)", "setting": "[2]; dose 15 mg/kg", "value": 1.40, "unit": "Log CFU/g"}, {"measurement": "CFU count reduction in kidneys in comparison to the vehicle control group", "setting": "[2]; dose 30 mg/kg SC QD", "value": 1.72, "unit": "log 10"}, {"measurement": "Change from vehicle group", "setting": "[2]; dose 30 mg/kg", "value": 1.22}, {"measurement": "Avg. Log CFU/g (kidney pair)", "setting": "[2]; dose 30 mg/kg", "value": 2.26, "unit": "Log CFU/g"}, {"measurement": "samples with CFU counts below the limit of detection", "setting": "[2]; kidneys, LOD=2.0×10^2 CFU/mL", "value": "five out of eight"}, {"measurement": "MIC", "setting": "[3]", "value": 1, "unit": "µg/mL"}]}
